# Data reported in ChEMBL document CHEMBL2040827, “Quinolizidinone carboxylic acids as CNS penetrant, selective m1 allosteric muscarinic receptor modulators” (ACS Med Chem Lett, 2010).
# Activity calls are given as the source filed them. The rule behind the calls is not given here.
# Columns and labels:
# [1] = target: T1, Muscarinic acetylcholine receptor M1 (Homo sapiens) (UniProt P11229); assay: Positive allosteric modulation of human muscarinic M1 receptor expressed in CHO-NFAT cells assessed as potentiation of acetylcholine-induced calcium flux after 1 hr by FLIPR assay; type: functional, cell-based
# T1 sequence (whole entry): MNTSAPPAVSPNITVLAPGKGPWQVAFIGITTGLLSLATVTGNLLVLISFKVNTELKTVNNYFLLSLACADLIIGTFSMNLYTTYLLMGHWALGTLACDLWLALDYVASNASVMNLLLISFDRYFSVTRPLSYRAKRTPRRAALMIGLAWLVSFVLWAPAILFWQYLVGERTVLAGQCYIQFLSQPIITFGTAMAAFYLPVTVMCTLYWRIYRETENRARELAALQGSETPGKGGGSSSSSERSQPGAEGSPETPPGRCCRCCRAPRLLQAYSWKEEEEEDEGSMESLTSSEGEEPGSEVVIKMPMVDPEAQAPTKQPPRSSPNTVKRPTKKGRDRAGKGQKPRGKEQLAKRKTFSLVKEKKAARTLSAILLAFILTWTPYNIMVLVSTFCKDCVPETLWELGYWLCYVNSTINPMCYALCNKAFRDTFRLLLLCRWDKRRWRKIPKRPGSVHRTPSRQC
# [2] = target: T1, Muscarinic acetylcholine receptor M1 (Homo sapiens); assay: Positive allosteric modulation of human muscarinic M1 receptor expressed in CHO-NFAT cells assessed as potentiation of acetylcholine-induced calcium flux after 1 hr by FLIPR assay relative to control; type: functional, cell-based; set-up: concentration or dose not given beside the values
# [3] = test system: Mus musculus; assay: Inhibition of scopolamine-induced memory deficit in ip dosed contextual fear conditioning memory model of mouse by measuring freezing behavior at 33 uM of plasma concentration after 24 hrs […] relative to control; type: functional, organism-based
# [4] = (§1) Protein binding in rat plasma; type: ADME, cell-free; conditions: read-out: PPB (converted)
# [5] = Ratio of drug level in brain to plasma in Sprague-Dawley rat at 10 mg/kg, po; type: ADME, organism-based; set-up: dose 10 mg/kg, route oral; conditions: read-out: BPR
# [6] = test system: Brain; assay: Drug uptake in Sprague-Dawley rat brain at 10 mg/kg, po; type: ADME, organism-based; set-up: dose 10 mg/kg, route oral; conditions: in vivo, read-out: Drug uptake
# [7] = test system: Cerebrospinal fluid; assay: Drug uptake in Sprague-Dawley rat cerebrospinal fluid at 10 mg/kg, po; type: ADME, organism-based; set-up: dose 10 mg/kg, route oral; conditions: in vivo, read-out: Drug uptake
# [8] = test system: Plasma; assay: Plasma concentration in Sprague-Dawley rat at 10 mg/kg, po; type: ADME, organism-based; set-up: dose 10 mg/kg, route oral; conditions: in vivo
# [9] = (§2) Protein binding in human plasma; type: ADME, cell-free; conditions: read-out: PPB (converted)
# [10] = target: Voltage-gated inwardly rectifying potassium channel KCNH2 (Homo sapiens, UniProt Q12809); assay: Inhibition of human ERG
# Chain of Voltage-gated inwardly rectifying potassium channel KCNH2 (Q12809 whole entry): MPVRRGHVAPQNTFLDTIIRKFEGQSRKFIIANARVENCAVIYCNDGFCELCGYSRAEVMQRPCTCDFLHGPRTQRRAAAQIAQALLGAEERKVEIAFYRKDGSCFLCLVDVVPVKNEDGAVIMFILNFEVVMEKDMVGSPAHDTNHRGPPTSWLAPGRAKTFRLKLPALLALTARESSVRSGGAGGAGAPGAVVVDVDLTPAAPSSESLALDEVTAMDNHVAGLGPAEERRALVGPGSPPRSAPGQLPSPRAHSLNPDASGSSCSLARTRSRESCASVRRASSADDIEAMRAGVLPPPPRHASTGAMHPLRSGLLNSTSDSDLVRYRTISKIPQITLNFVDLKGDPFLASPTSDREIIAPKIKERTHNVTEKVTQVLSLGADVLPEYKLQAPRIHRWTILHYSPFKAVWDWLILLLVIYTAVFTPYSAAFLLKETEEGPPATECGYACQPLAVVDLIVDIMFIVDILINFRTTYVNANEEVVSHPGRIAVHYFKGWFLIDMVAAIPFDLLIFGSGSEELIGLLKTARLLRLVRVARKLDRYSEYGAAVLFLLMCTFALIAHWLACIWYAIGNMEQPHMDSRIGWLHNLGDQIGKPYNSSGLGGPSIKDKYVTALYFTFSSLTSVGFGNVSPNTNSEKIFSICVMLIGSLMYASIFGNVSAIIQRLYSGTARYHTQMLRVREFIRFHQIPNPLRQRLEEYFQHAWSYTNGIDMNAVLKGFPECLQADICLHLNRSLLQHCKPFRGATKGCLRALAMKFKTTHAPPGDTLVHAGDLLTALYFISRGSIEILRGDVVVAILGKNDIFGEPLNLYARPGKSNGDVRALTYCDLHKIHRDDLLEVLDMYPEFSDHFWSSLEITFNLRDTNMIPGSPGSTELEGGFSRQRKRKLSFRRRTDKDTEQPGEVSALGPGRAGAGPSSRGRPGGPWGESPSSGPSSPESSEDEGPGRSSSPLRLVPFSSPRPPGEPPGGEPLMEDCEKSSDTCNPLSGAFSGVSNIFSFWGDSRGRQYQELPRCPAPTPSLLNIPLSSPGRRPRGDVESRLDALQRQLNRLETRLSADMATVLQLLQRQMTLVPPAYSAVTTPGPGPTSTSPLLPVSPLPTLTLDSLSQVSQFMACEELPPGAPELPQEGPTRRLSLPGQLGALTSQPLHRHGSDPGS
# [11] = test system: P-glycoprotein; assay: Passive permeability of the compound assessed as P-glycoprotein-mediated drug transport; type: ADME; conditions: not told
# [12] = target: MDR1a (multidrug resistance protein 1a) (Rattus norvegicus, UniProt Q6PSM0); assay: Efflux ratio of the compound assessed as ratio of rat MDR1a-mediated permeability from basolateral to apical over apical to basolateral side of drug transport; type: ADME; conditions: not told
# Chain of MDR1a (multidrug resistance protein 1a) (Q6PSM0 whole entry): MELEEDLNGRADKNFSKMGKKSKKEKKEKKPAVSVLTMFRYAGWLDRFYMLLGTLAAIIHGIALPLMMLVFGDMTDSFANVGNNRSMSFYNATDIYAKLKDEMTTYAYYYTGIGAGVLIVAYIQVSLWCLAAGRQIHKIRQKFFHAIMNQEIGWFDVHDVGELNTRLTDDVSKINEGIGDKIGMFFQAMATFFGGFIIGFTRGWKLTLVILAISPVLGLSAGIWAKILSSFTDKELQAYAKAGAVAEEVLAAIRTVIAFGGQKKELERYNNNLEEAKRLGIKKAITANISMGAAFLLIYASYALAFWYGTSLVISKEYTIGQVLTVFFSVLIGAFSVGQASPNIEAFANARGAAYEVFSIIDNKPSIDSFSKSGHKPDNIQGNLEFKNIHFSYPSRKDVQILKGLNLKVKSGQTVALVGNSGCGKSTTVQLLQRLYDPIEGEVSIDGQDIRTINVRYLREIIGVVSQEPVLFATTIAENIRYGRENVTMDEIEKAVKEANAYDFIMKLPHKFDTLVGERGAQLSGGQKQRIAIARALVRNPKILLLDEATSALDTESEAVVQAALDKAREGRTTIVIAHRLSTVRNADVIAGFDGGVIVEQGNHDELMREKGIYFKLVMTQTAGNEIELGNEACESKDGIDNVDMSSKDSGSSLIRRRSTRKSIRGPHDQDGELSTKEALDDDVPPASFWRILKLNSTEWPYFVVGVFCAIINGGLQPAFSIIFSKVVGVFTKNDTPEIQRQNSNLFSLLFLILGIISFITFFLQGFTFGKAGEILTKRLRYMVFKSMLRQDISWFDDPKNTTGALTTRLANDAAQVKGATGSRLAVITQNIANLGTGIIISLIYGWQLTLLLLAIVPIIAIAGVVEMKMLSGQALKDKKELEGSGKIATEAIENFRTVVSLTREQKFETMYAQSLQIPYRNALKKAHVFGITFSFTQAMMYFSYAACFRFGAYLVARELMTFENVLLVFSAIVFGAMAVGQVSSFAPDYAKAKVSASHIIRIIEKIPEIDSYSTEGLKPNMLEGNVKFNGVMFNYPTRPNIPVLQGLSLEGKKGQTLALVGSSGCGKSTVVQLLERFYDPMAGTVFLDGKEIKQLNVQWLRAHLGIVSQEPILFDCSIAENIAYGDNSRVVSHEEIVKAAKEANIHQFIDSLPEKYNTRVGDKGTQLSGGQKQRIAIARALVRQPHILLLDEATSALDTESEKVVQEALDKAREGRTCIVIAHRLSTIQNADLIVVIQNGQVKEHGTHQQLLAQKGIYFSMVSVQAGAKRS
# [13] = Ratio of drug uptake in Sprague-Dawley rat cerebrospinal fluid at 10 mg/kg, po to protein binding in rat plasma; type: ADME, organism-based, CSF/Plasma; set-up: dose 10 mg/kg, route oral; conditions: in vivo
# [14] = target: MDR1 (P-glycoprotein, ABCB1) (Homo sapiens, UniProt P08183); assay: Efflux ratio of the compound assessed as ratio of human MDR1-mediated permeability from basolateral to apical over apical to basolateral side of drug transport; type: ADME; conditions: not told
# Chain of MDR1 (P-glycoprotein, ABCB1) (P08183 whole entry): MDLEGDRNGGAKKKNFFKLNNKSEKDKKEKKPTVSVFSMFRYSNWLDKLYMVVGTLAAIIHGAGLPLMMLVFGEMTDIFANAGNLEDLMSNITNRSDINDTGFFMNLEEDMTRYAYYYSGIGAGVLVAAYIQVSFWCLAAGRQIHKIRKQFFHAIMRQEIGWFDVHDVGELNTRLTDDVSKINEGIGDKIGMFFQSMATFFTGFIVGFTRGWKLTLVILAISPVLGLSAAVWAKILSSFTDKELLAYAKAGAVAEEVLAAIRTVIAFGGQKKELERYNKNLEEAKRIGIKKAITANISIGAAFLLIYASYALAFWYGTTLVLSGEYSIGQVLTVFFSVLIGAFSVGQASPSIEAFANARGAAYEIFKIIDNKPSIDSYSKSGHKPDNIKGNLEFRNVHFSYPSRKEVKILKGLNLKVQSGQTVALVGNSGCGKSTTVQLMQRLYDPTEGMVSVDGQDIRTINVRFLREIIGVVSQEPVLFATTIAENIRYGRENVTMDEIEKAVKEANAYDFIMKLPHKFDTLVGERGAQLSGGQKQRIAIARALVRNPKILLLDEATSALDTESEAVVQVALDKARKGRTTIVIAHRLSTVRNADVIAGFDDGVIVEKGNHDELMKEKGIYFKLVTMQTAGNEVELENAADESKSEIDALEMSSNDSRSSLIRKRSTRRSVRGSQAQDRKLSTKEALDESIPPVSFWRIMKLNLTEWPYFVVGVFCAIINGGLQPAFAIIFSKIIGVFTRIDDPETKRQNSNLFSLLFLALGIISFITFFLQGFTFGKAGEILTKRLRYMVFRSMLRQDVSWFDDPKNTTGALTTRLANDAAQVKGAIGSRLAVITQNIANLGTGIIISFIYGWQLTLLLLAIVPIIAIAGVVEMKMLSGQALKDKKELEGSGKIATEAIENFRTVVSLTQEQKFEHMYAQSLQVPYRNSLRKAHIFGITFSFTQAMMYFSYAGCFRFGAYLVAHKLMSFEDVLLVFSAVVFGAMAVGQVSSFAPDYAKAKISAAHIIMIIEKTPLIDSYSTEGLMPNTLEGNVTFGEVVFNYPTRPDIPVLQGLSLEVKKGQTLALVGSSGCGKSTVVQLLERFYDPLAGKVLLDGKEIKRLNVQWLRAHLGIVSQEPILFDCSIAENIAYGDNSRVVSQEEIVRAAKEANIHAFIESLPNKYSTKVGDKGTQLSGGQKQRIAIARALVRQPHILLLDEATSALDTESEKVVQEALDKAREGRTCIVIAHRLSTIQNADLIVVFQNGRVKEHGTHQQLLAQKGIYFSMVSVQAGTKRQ
# [15] = test system: Plasma; assay: as §1; type: ADME, cell-free
# [16] = test system: Plasma; assay: as §2; type: ADME, cell-free
# [17] = Fraction unbound in rat plasma; type: ADME, cell-free
# [18] = Fraction unbound in human plasma; type: ADME, cell-free
# [19] = Oral bioavailability in dog at 10 mg/kg; type: ADME, organism-based, Canis lupus familiaris; conditions: in vivo
# [20] = test system: Mus musculus; assay: Inhibition of scopolamine-induced memory deficit in contextual fear conditioning memory model of mouse by measuring freezing behavior at 30 mg/kg, ip at 7.4 uM of plasma concentration after 24 hrs […] relative to control; type: functional, organism-based; set-up: dose 30 mg/kg
# [21] = Half life in Sprague-Dawley rat at 10 mg/kg, po and 2 mg/kg, iv; type: ADME, organism-based; conditions: in vivo
# [22] = Oral bioavailability in Sprague-Dawley rat at 10 mg/kg; type: ADME, organism-based; conditions: in vivo
# [23] = Clearance in Sprague-Dawley rat at 10 mg/kg, po and 2 mg/kg, iv; type: ADME, organism-based; conditions: in vivo
# [24] = target: Muscarinic acetylcholine receptor M3 (Homo sapiens) (UniProt P20309); assay: Agonist activity at human muscarinic M3 receptor expressed in CHO-NFAT cells assessed as potentiation of acetylcholine-induced calcium flux at up to 100 uM after 1 hr by FLIPR assay; type: functional, cell-based
# Chain of Muscarinic acetylcholine receptor M3 (Homo sapiens) (P20309 whole entry, looked up): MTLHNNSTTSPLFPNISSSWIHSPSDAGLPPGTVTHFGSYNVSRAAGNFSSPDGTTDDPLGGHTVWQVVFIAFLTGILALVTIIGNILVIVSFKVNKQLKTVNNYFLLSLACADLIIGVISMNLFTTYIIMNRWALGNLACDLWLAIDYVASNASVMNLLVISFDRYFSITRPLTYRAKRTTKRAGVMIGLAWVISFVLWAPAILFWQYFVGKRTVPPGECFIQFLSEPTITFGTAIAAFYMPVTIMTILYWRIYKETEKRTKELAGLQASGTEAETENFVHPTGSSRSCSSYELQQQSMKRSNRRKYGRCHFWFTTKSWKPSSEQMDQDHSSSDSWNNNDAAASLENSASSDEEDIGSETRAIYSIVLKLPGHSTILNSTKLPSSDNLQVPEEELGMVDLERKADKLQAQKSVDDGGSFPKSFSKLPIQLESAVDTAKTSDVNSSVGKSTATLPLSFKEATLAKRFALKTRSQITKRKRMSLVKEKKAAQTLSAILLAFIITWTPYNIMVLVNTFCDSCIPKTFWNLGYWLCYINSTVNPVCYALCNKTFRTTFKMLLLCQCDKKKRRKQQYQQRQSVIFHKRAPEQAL
# [25] = target: T2, Muscarinic acetylcholine receptor M4 (Homo sapiens) (UniProt P08173); assay: Antagonist activity at human muscarinic M4 receptor expressed in CHO-NFAT cells assessed as inhibition of acetylcholine-induced calcium flux at up to 100 uM after 1 hr by FLIPR assay; type: functional, cell-based
# T2 sequence (whole entry): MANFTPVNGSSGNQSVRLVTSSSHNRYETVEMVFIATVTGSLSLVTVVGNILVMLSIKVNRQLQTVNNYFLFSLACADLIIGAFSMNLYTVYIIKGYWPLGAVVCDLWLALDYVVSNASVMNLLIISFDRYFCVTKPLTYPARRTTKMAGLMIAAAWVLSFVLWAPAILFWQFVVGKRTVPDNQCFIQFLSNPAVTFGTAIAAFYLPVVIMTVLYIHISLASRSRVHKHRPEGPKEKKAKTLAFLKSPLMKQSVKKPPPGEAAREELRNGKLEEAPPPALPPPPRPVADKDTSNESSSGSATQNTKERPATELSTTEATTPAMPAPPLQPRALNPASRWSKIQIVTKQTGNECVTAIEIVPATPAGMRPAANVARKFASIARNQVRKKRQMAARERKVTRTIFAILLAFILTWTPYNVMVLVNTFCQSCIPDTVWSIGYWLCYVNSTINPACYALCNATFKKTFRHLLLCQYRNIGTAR
# [26] = target: T2, Muscarinic acetylcholine receptor M4 (Homo sapiens); assay: Agonist activity at human muscarinic M4 receptor expressed in CHO-NFAT cells assessed as potentiation of acetylcholine-induced calcium flux at up to 100 uM after 1 hr by FLIPR assay; type: functional, cell-based
# [27] = target: Muscarinic acetylcholine receptor M3 (Homo sapiens) (UniProt P20309); assay: Antagonist activity at human muscarinic M3 receptor expressed in CHO-NFAT cells assessed as inhibition of acetylcholine-induced calcium flux at up to 100 uM after 1 hr by FLIPR assay; type: functional, cell-based
# [28] = Clearance in dog at 10 mg/kg, po and 2 mg/kg, iv; type: ADME, organism-based, Canis lupus familiaris; conditions: in vivo
# [29] = Half life in dog at 10 mg/kg, po and 2 mg/kg, iv; type: ADME, organism-based, Canis lupus familiaris; conditions: in vivo
# [30] = target: T3, Muscarinic acetylcholine receptor M2 (Homo sapiens) (UniProt P08172); assay: Antagonist activity at human muscarinic M2 receptor expressed in CHO-NFAT cells assessed as inhibition of acetylcholine-induced calcium flux at up to 100 uM after 1 hr by FLIPR assay; type: functional, cell-based
# T3 sequence (whole entry): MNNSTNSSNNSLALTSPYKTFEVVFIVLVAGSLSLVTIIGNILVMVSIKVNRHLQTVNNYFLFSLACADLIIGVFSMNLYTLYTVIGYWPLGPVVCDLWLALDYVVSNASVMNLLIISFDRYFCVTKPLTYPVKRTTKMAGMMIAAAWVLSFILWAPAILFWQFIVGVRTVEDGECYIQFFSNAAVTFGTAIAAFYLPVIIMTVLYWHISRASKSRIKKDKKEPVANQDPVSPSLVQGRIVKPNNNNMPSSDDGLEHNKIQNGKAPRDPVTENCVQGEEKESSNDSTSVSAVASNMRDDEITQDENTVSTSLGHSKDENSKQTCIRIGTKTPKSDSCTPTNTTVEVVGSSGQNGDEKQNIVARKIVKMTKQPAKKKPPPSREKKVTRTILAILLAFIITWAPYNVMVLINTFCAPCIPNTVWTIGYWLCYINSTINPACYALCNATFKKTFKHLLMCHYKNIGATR
# [31] = test system: Mus musculus; assay: Inhibition of scopolamine-induced memory deficit in ip dosed contextual fear conditioning memory model of mouse by measuring freezing behavior after 24 hrs […] relative to control; type: functional, organism-based
# [32] = target: T3, Muscarinic acetylcholine receptor M2 (Homo sapiens); assay: Agonist activity at human muscarinic M2 receptor expressed in CHO-NFAT cells assessed as potentiation of acetylcholine-induced calcium flux at up to 100 uM after 1 hr by FLIPR assay; type: functional, cell-based
# [33] = target: T1, Muscarinic acetylcholine receptor M1 (Homo sapiens); assay: Agonist activity at human muscarinic M1 receptor expressed in CHO-NFAT cells assessed as effect on calcium flux up to 10 uM after 1 hr by FLIPR assay; type: functional, cell-based
compound,measurement,setting,value
O=C(O)c1cc(Cc2ccc(-c3ccccn3)cc2)c2ccccn2c1=O,Activity,[1],0.061 µM
same,Activity,[2],78%
COc1ccc(Cn2cc(C(=O)O)c(=O)c3ccccc32)cc1,inhibition,[3],inactive
O=C(O)c1cc(CN2CCN(c3ccc(C(F)(F)F)cc3)CC2)c2ccccn2c1=O,fraction unbound,[4],0.034
same,Kp,[5],2.7
same,concentration,[6],3080 nM
same,concentration,[7],14 nM
same,concentration,[8],1140 nM
same,fraction unbound,[9],0.049
same,IC50,[10],100 nM
same,Activity,[1],0.27 µM
same,Papp,[11],32 ×10⁻⁶ cm/s
same,efflux ratio,[12],1.3
same,Ratio,[13],0.25
same,Activity,[2],67%
same,efflux ratio,[14],1.4
O=C(O)c1cc(Cc2ccccc2)c2ccccn2c1=O,Activity,[1],0.92 µM
same,Activity,[2],81%
O=C(O)c1cc(Cc2ccc(-c3ccccc3)cc2)c2ccccn2c1=O,PPB,[15],ND(Insoluble)
same,PPB,[16],ND(Insoluble)
same,Activity,[1],0.11 µM
same,Activity,[2],86%
O=C(O)c1cc(CN2CCN(c3ccc(Br)cc3)CC2)c2ccccn2c1=O,fraction unbound,[4],0.039
same,Kp,[5],1.3
same,concentration,[6],4580 nM
same,concentration,[7],70 nM
same,concentration,[8],3650 nM
same,fraction unbound,[9],0.065
same,IC50,[10],2100 nM
same,Activity,[1],0.13 µM
same,Papp,[11],16 ×10⁻⁶ cm/s
same,efflux ratio,[12],0.6
same,Ratio,[13],0.32
same,fraction unbound,[17],0.04
same,Activity,[2],77%
same,efflux ratio,[14],0.1
O=C(O)c1cc(Cc2ccc(Cl)cc2)c2ccccn2c1=O,Activity,[1],0.2 µM
same,Activity,[2],93%
O=C(O)c1cc(CN2CCN(c3ccccc3)CC2)c2ccccn2c1=O,fraction unbound,[4],0.369
same,fraction unbound,[18],> 0.25
same,fraction unbound,[9],0.26
same,Activity,[1],0.93 µM
same,fraction unbound,[17],> 0.25
same,Activity,[2],52%
O=C(O)c1cc(CN2CCC(c3ccccc3)CC2)c2ccccn2c1=O,Activity,[1],1.3 µM
same,Activity,[2],58%
O=C(O)c1cc(CN2CCCCC2)c2ccccn2c1=O,Activity,[1],7.6 µM
same,Activity,[2],87%
O=C(O)c1cc(CN2CCN(c3ccccc3)C(=O)C2)c2ccccn2c1=O,fraction unbound,[4],0.62
same,fraction unbound,[9],0.479
same,Activity,[1],1.1 µM
same,Activity,[2],89%
O=C(O)c1cc(CN2CCN(c3ccncc3)CC2)c2ccccn2c1=O,Kp,[5],0.03
same,concentration,[6],59 nM
same,concentration,[7],16 nM
same,concentration,[8],2070 nM
same,Activity,[1],1.5 µM
same,Papp,[11],< 5 ×10⁻⁶ cm/s
same,Ratio,[13],0.02
same,Activity,[2],86%
O=C(O)c1cc(CN2CCC(c3ccccc3)C2)c2ccccn2c1=O (stereo unspecified),Activity,[1],> 100 µM
O=C(O)c1cc(C(O)c2ccccc2)c2ccccn2c1=O (stereo unspecified),Activity,[1],> 100 µM
N#Cc1ccc(N2CCN(Cc3cc(C(=O)O)c(=O)n4ccccc34)CC2)cc1,bioavailability,[19],33%
same,fraction unbound,[4],0.062
same,Kp,[5],0.17
same,concentration,[6],248 nM
same,concentration,[7],85 nM
same,inhibition,[20],Active
same,concentration,[8],1500 nM
same,half-life,[21],384 min
same,bioavailability,[22],23%
same,fraction unbound,[9],0.134
same,clearance,[23],10.8 mL/min/kg
same,IC50,[10],7400 nM
same,Activity,[24],inactive
same,inhibition,[25],inactive
same,Activity,[26],inactive
same,inhibition,[27],inactive
same,clearance,[28],13 mL/min/kg
same,Activity,[1],0.52 µM
same,Papp,[11],22 ×10⁻⁶ cm/s
same,half-life,[29],150 min
same,efflux ratio,[12],1.9
same,Ratio,[13],0.42
same,inhibition,[3],Active
same,inhibition,[30],inactive
same,inhibition,[31],Dose-dependent effect
same,Activity,[2],94%
same,Activity,[32],inactive
same,efflux ratio,[14],0.7
same,Activity,[33],inactive
O=C(O)c1cc(Cc2ccc(-c3cccnc3)cc2)c2ccccn2c1=O,fraction unbound,[4],0.015
same,fraction unbound,[9],0.003
same,Activity,[1],0.075 µM
same,Activity,[2],74%
O=C(O)c1cc(C(=O)c2ccccc2)c2ccccn2c1=O,Activity,[1],> 100 µM
